Data from PMC10289903 (Investigational New Drugs, 2023).
Where two headings read alike, the source gives them in different places.

Test system: patients with locally advanced or metastatic solid tumors
From the text: This was a Phase Ib, multicenter, open-label, dose-finding clinical trial (NCT02610075). […] Three types of treatment schedules were investigated: cohorts bid 1, bid 2, qd 1.1, qd 2.1 and qd 3.1 received bid or qd treatment on a 5/9 schedule (5 days on treatment, followed by 9 days off) on a 14-day cycle. Cohorts qd 1.2, qd 2.2, and qd 3.2 received treatment on a 5/2 schedule (5 days on followed by 2 days off for 2 of 3 weeks) in a 21-day cycle. Cohorts qd 2.3 and qd 3.3 received treatment on a weekly 5/2 schedule in a 21-day cycle (Table 1). The highest dose level(s) at which less than one-third of evaluable patients (none of 3 patients or 1 of 6 patients) experienced a dose-limiting toxicity (DLT) was declared the MTD.
The per protocol analysis set was defined as a subset of the full analysis set, excluding subjects having an important protocol deviation, to be used for analyses of efficacy endpoints if appropriate.

[1] = qd 3.3: 300 mg 5/2 weekly (n=2)

C=CCn1c(=O)c2cnc(Nc3ccc(N4CCN(C)CC4)cc3)nc2n1-c1cccc(C(C)(C)O)n1 [adavosertib, Adavosertib]
Dehydration (treatment-emergent AE) (qd 3.1: 300 mg qd 5/9 (n=4)): 1 (25.0) n (%)
Dehydration (treatment-related AE) (qd 3.1: 300 mg qd 5/9 (n=4)): 0 n (%)
Diarrhea (treatment-emergent AE) (qd 3.1: 300 mg qd 5/9 (n=4)): 0 n (%)
Diarrhea (treatment-related AE) (qd 3.1: 300 mg qd 5/9 (n=4)): 0 n (%)
Dizziness (treatment-emergent AE) (qd 3.1: 300 mg qd 5/9 (n=4)): 2 (50.0) n (%)
Dyspepsia (treatment-emergent AE) (qd 3.1: 300 mg qd 5/9 (n=4)): 0 n (%)
Dyspepsia (treatment-related AE) (qd 3.1: 300 mg qd 5/9 (n=4)): 0 n (%)
Dyspnea (treatment-emergent AE) (qd 3.1: 300 mg qd 5/9 (n=4)): 2 (50.0) n (%)
Edema peripheral (treatment-emergent AE) (qd 3.1: 300 mg qd 5/9 (n=4)): 2 (50.0) n (%)
Fall (treatment-emergent AE) (qd 3.1: 300 mg qd 5/9 (n=4)): 0 n (%)
Fatigue (treatment-emergent AE) (qd 3.1: 300 mg qd 5/9 (n=4)): 2 (50.0) n (%)
Fatigue (treatment-related AE) (qd 3.1: 300 mg qd 5/9 (n=4)): 1 (25.0) n (%)
Headache (treatment-emergent AE) (qd 3.1: 300 mg qd 5/9 (n=4)): 0 n (%)
Hypokalemia (treatment-emergent AE) (qd 3.1: 300 mg qd 5/9 (n=4)): 0 n (%)
Insomnia (treatment-emergent AE) (qd 3.1: 300 mg qd 5/9 (n=4)): 1 (25.0) n (%)
Muscle spasms (treatment-emergent AE) (qd 3.1: 300 mg qd 5/9 (n=4)): 1 (25.0) n (%)
Myalgia (treatment-emergent AE) (qd 3.1: 300 mg qd 5/9 (n=4)): 1 (25.0) n (%)
Myalgia (treatment-related AE) (qd 3.1: 300 mg qd 5/9 (n=4)): 1 (25.0) n (%)
Nausea (treatment-emergent AE) (qd 3.1: 300 mg qd 5/9 (n=4)): 2 (50.0) n (%)
Nausea (treatment-related AE) (qd 3.1: 300 mg qd 5/9 (n=4)): 2 (50.0) n (%)
Neutropenia (treatment-emergent AE) (qd 3.1: 300 mg qd 5/9 (n=4)): 0 n (%)
Neutropenia (treatment-related AE) (qd 3.1: 300 mg qd 5/9 (n=4)): 0 n (%)
Pneumonia (treatment-emergent AE) (qd 3.1: 300 mg qd 5/9 (n=4)): 0 n (%)
Pyrexia (treatment-emergent AE) (qd 3.1: 300 mg qd 5/9 (n=4)): 0 n (%)
Rash (treatment-emergent AE) (qd 3.1: 300 mg qd 5/9 (n=4)): 0 n (%)
Thrombocytopenia (treatment-emergent AE) (qd 3.1: 300 mg qd 5/9 (n=4)): 1 (25.0) n (%)
Thrombocytopenia (treatment-related AE) (qd 3.1: 300 mg qd 5/9 (n=4)): 1 (25.0) n (%)
Urinary tract infection (treatment-emergent AE) (qd 3.1: 300 mg qd 5/9 (n=4)): 0 n (%)
Vomiting (treatment-emergent AE) (qd 3.1: 300 mg qd 5/9 (n=4)): 0 n (%)
Vomiting (treatment-related AE) (qd 3.1: 300 mg qd 5/9 (n=4)): 0 n (%)
Abdominal pain (treatment-emergent AE) (qd 3.2: 300 mg qd 5/2 (n=16)): 4 (25.0) n (%)
Abdominal pain (treatment-related AE) (qd 3.2: 300 mg qd 5/2 (n=16)): 2 (12.5) n (%)
Alanine aminotransferase increased (treatment-emergent AE) (qd 3.2: 300 mg qd 5/2 (n=16)): 0 n (%)
Anemia (treatment-emergent AE) (qd 3.2: 300 mg qd 5/2 (n=16)): 8 (50.0) n (%)
Anemia (treatment-related AE) (qd 3.2: 300 mg qd 5/2 (n=16)): 6 (37.5) n (%)
Any AE (treatment-emergent) (qd 3.2: 300 mg qd 5/2 (n=16)): 16 (100.0) n (%)
Any grade ≥ 3 AE (qd 3.2: 300 mg qd 5/2 (n=16)): 12 (75.0) n (%)
Any treatment-related AE (qd 3.2: 300 mg qd 5/2 (n=16)): 16 (100.0) n (%)
Any treatment-related grade ≥ 3 AE (qd 3.2: 300 mg qd 5/2 (n=16)): 8 (50.0) n (%)
Asthenia (treatment-emergent AE) (qd 3.2: 300 mg qd 5/2 (n=16)): 4 (25.0) n (%)
Asthenia (treatment-related AE) (qd 3.2: 300 mg qd 5/2 (n=16)): 2 (12.5) n (%)
Back pain (treatment-emergent AE) (qd 3.2: 300 mg qd 5/2 (n=16)): 4 (25.0) n (%)
Constipation (treatment-emergent AE) (qd 3.2: 300 mg qd 5/2 (n=16)): 4 (25.0) n (%)
Constipation (treatment-related AE) (qd 3.2: 300 mg qd 5/2 (n=16)): 0 n (%)
Cough (treatment-emergent AE) (qd 3.2: 300 mg qd 5/2 (n=16)): 2 (12.5) n (%)
Decreased appetite (treatment-emergent AE) (qd 3.2: 300 mg qd 5/2 (n=16)): 5 (31.3) n (%)
Decreased appetite (treatment-related AE) (qd 3.2: 300 mg qd 5/2 (n=16)): 4 (25.0) n (%)
Dehydration (treatment-emergent AE) (qd 3.2: 300 mg qd 5/2 (n=16)): 7 (43.8) n (%)
Dehydration (treatment-related AE) (qd 3.2: 300 mg qd 5/2 (n=16)): 1 (6.3) n (%)
Diarrhea (treatment-emergent AE) (qd 3.2: 300 mg qd 5/2 (n=16)): 9 (56.3) n (%)
Diarrhea (treatment-related AE) (qd 3.2: 300 mg qd 5/2 (n=16)): 9 (56.3) n (%)
Dizziness (treatment-emergent AE) (qd 3.2: 300 mg qd 5/2 (n=16)): 4 (25.0) n (%)
Dyspepsia (treatment-emergent AE) (qd 3.2: 300 mg qd 5/2 (n=16)): 2 (12.5) n (%)
Dyspepsia (treatment-related AE) (qd 3.2: 300 mg qd 5/2 (n=16)): 2 (12.5) n (%)
Dyspnea (treatment-emergent AE) (qd 3.2: 300 mg qd 5/2 (n=16)): 3 (18.8) n (%)
Edema peripheral (treatment-emergent AE) (qd 3.2: 300 mg qd 5/2 (n=16)): 4 (25.0) n (%)
Fall (treatment-emergent AE) (qd 3.2: 300 mg qd 5/2 (n=16)): 3 (18.8) n (%)
Fatigue (treatment-emergent AE) (qd 3.2: 300 mg qd 5/2 (n=16)): 9 (56.3) n (%)
Fatigue (treatment-related AE) (qd 3.2: 300 mg qd 5/2 (n=16)): 8 (50.0) n (%)
Headache (treatment-emergent AE) (qd 3.2: 300 mg qd 5/2 (n=16)): 1 (6.3) n (%)
Hypokalemia (treatment-emergent AE) (qd 3.2: 300 mg qd 5/2 (n=16)): 4 (25.0) n (%)
Insomnia (treatment-emergent AE) (qd 3.2: 300 mg qd 5/2 (n=16)): 0 n (%)
Muscle spasms (treatment-emergent AE) (qd 3.2: 300 mg qd 5/2 (n=16)): 1 (6.3) n (%)
Myalgia (treatment-emergent AE) (qd 3.2: 300 mg qd 5/2 (n=16)): 3 (18.8) n (%)
Myalgia (treatment-related AE) (qd 3.2: 300 mg qd 5/2 (n=16)): 1 (6.3) n (%)
Nausea (treatment-emergent AE) (qd 3.2: 300 mg qd 5/2 (n=16)): 9 (56.3) n (%)
Nausea (treatment-related AE) (qd 3.2: 300 mg qd 5/2 (n=16)): 7 (43.8) n (%)
Neutropenia (treatment-emergent AE) (qd 3.2: 300 mg qd 5/2 (n=16)): 4 (25.0) n (%)
Neutropenia (treatment-related AE) (qd 3.2: 300 mg qd 5/2 (n=16)): 4 (25.0) n (%)
Pneumonia (treatment-emergent AE) (qd 3.2: 300 mg qd 5/2 (n=16)): 4 (25.0) n (%)
Pyrexia (treatment-emergent AE) (qd 3.2: 300 mg qd 5/2 (n=16)): 3 (18.8) n (%)
Rash (treatment-emergent AE) (qd 3.2: 300 mg qd 5/2 (n=16)): 2 (12.5) n (%)
Thrombocytopenia (treatment-emergent AE) (qd 3.2: 300 mg qd 5/2 (n=16)): 3 (18.8) n (%)
Thrombocytopenia (treatment-related AE) (qd 3.2: 300 mg qd 5/2 (n=16)): 3 (18.8) n (%)
Urinary tract infection (treatment-emergent AE) (qd 3.2: 300 mg qd 5/2 (n=16)): 3 (18.8) n (%)
Vomiting (treatment-emergent AE) (qd 3.2: 300 mg qd 5/2 (n=16)): 5 (31.3) n (%)
Vomiting (treatment-related AE) (qd 3.2: 300 mg qd 5/2 (n=16)): 4 (25.0) n (%)
Abdominal pain (treatment-emergent AE) [1]: 1 (50.0) n (%)
Abdominal pain (treatment-related AE) [1]: 1 (50.0) n (%)
Alanine aminotransferase increased (treatment-emergent AE) [1]: 0 n (%)
Anemia (treatment-emergent AE) [1]: 0 n (%)
Anemia (treatment-related AE) [1]: 0 n (%)
Any AE (treatment-emergent) [1]: 2 (100.0) n (%)
Any grade ≥ 3 AE [1]: 1 (50.0) n (%)
Any treatment-related AE [1]: 2 (100.0) n (%)
Any treatment-related grade ≥ 3 AE [1]: 1 (50.0) n (%)
Asthenia (treatment-emergent AE) [1]: 0 n (%)
Asthenia (treatment-related AE) [1]: 0 n (%)
Back pain (treatment-emergent AE) [1]: 0 n (%)
Constipation (treatment-emergent AE) [1]: 0 n (%)
Constipation (treatment-related AE) [1]: 0 n (%)
Cough (treatment-emergent AE) [1]: 0 n (%)
Decreased appetite (treatment-emergent AE) [1]: 0 n (%)
Decreased appetite (treatment-related AE) [1]: 0 n (%)
Dehydration (treatment-emergent AE) [1]: 0 n (%)
Dehydration (treatment-related AE) [1]: 0 n (%)
Diarrhea (treatment-emergent AE) [1]: 2 (100.0) n (%)
Diarrhea (treatment-related AE) [1]: 2 (100.0) n (%)
Dizziness (treatment-emergent AE) [1]: 1 (50.0) n (%)
Dyspepsia (treatment-emergent AE) [1]: 0 n (%)
Dyspepsia (treatment-related AE) [1]: 0 n (%)
Dyspnea (treatment-emergent AE) [1]: 0 n (%)
Edema peripheral (treatment-emergent AE) [1]: 0 n (%)
Fall (treatment-emergent AE) [1]: 0 n (%)
Fatigue (treatment-emergent AE) [1]: 0 n (%)
Fatigue (treatment-related AE) [1]: 0 n (%)
Headache (treatment-emergent AE) [1]: 0 n (%)
Hypokalemia (treatment-emergent AE) [1]: 1 (50.0) n (%)
Insomnia (treatment-emergent AE) [1]: 0 n (%)
Muscle spasms (treatment-emergent AE) [1]: 0 n (%)
Myalgia (treatment-emergent AE) [1]: 1 (50.0) n (%)
Myalgia (treatment-related AE) [1]: 0 n (%)
Nausea (treatment-emergent AE) [1]: 2 (100.0) n (%)
Nausea (treatment-related AE) [1]: 2 (100) n (%)
Neutropenia (treatment-emergent AE) [1]: 1 (50.0) n (%)
Neutropenia (treatment-related AE) [1]: 1 (50.0) n (%)
